Results reported in US9540323B2 (BRISTOL-MYERS SQUIBB COMPANY, priority 2012, dated 2017).

Columns and labels:
[1] = system: human platelet rich plasma (PRP); assay: ADP induced platelet aggregation assay; settings: Homo sapiens, Platelet, 5 min, read-out: PA IC50 (μM) @ 10 μM ADP, human PRP, 10 μM ADP, AUC at 5 minute
[2] = target: T1, cloned human P2Y1 receptors (Homo sapiens (Human), UniProt P47900); assay: Binding Assay A - membrane binding assay, [33P] 2MeS-ADP (WGA FlashPlate); settings: values marked * in Table 1; 0.5 nM [33P] 2MeS-ADP, Cheng-Prusoff; read-out: P2Y1 Ki (nM) using binding assay A
Text: A membrane binding assay was used to identify inhibitors of [^33P] […] The cDNA clone for human P2Y1 was obtained from Incyte Pharmaceuticals and its sequence confirmed by established techniques (for a compendium of techniques used see Ausubel, F. et al., Current Protocols in Molecular Biology, John Wiley and Sons, NY, NY (1995)). The essential coding sequences were subcloned into pCDNA 3.1 (Invitrogen) to produce a P2Y1 expression construct. This construct was then transfected into the human embryonic kidney cell line HEK-293 and stable transfectants selected in GENETICIN® (G418 sulfate; Life Technologies). […] Membranes were prepared by growing HEK293 #49 in 150 mm dishes in DMEM/10% FBS in the presence of 1 mg/ml G418 until cells were 80-90% confluent. Plates were then washed with cold (4° C.) D-PBS twice and cells harvested by scraping into 10 mL D-PBS. Cells were pelleted by centrifugation (1,000 g, 10 min, 4° C.) and the resulting pellet resuspended in Lysis Buffer (10 mM Tris (7.4), 5 mM MgCl2 containing Complete protease inhibitor cocktail (Roche Cat #1873580) as recommended by the manufacturer). The suspension was then homogenized in a Dounce homogenizer (10-15 strokes; B pestle, on ice) and the homogenate spun at 1,000 g, 4° C., 5 min to pellet large debris. The supernatant was centrifuged at 150,000 g, 4° C., for 1 hour and the resulting membrane pellet resuspended in 0.5-1 mL of Buffer B (15 mM HEPES (7.4), 145 mM NaCl, 0.1 mM MgCl2, 5 mM EDTA, 5 mM KCl) and stored at −70° C. until used.
Binding reactions were performed in WGA FLASHPLATE®s (PerkinElmer Life Sciences, Cat # SMP105A) in a volume of 200 μL containing ˜45 fmol of P2Y1 receptor (5 μg of total protein), 0.5 nM [^33P] […] Reactions were allowed to proceed to completion at room temperature for 1 hour and then the aqueous solution aspirated. Plates were sealed and the residual [^33P] bound to the plate determined by scintillation counting.

[3] = target: T1, cloned human P2Y1 receptors; assay: Binding Assay B - Scintillation Proximity Assay (SPA) for P2Y1 binding, [33P] 2MeS-ADP; settings: SPA, 0.3 nM [33P] 2MeS-ADP, Cheng-Prusoff; read-out: P2Y1 Ki (nM) using binding assay B
Procedure: Binding Assay B—Scintillation Proximity Assay (SPA) for P2Y1 Binding
A SPA membrane binding assay was used to identify inhibitors of [^33P] […] Reactions were allowed to proceed to completion at room temperature for 1 hour followed by centrifugation of the plate for 5 min. About 40 μL of the aqueous solution was aspirated. Plates were sealed and the [^33P]

T1 sequence (P47900 whole entry): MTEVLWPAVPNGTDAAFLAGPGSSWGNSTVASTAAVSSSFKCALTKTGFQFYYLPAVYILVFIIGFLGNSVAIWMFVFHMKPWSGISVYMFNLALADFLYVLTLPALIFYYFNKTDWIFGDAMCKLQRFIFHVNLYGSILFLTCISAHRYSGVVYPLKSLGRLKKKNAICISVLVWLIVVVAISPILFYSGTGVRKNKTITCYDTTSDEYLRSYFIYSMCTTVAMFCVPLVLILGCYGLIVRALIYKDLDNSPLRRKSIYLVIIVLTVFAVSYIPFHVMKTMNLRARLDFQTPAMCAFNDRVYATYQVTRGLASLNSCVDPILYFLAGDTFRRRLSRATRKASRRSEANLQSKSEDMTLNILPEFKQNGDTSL

SMILES | IC50 [1] | Ki [2] | Ki [3]
CC1(C)CN(c2ccccc2NC(=O)Nc2nc3ccc(Cl)nc3s2)c2c(O)ccc(-c3nc4cc(F)ccc4s3)c21 [Example 173, 1-(5-Chlorothiazolo[5,4-b]pyridin-2-yl)-3-(2-(4-(5-fluorobenzo[d]thiazol-2-yl)-7-hydroxy-3,3-dimethylindolin-1-yl)phenyl)urea] | 0.5 µM | 20.7 nM | –
CC(C)c1cnc(-c2ccc(O)c3c2C(C)(C)CN3c2ccccc2NC(=O)Nc2ccc(OC(F)(F)F)cc2)nc1 [Example 126, 1-(2-(7-Hydroxy-4-(5-isopropylpyrimidin-2-yl)-3,3-dimethylindolin-1-yl)phenyl)-3-(4-(trifluoromethoxy)phenyl)urea] | 0.3 µM | 4.1 nM | –
CC1(C)CN(c2ccccc2NC(=O)Nc2ccc(OC(F)(F)F)cc2)c2c(O)ccc(-c3ccc(F)cn3)c21 [Example 123, 1-(2-(4-(5-Fluoropyridin-2-yl)-7-hydroxy-3,3-dimethylindolin-1-yl)phenyl)-3-(4-(trifluoromethoxy)phenyl)urea] | 0.43 µM | 4.5 nM | –
CC1(C)CN(c2ccccc2NC(=O)Nc2ccc(OC(F)(F)F)cc2)c2c(O)ccc(-c3ccc(C(F)(F)F)cn3)c21 [Example 125, 1-(2-(7-Hydroxy-3,3-dimethyl-4-(5-(trifluoromethyl)pyridin-2-yl)indolin-1-yl)phenyl)-3-(4-(trifluoromethoxy)phenyl)urea] | 0.15 µM | 4.8 nM | –
CCC1(CC)CN(c2ccccc2NC(=O)Nc2ccc(C3CCCN3CC(C)C)cc2)c2c1ccc(F)c2O (stereo not drawn) [Example 36, 1-(2-(3,3-Diethyl-6-fluoro-7-hydroxyindolin-1-yl)phenyl)-3-(4-(1-isobutylpyrrolidin-2-yl)phenyl)urea] | 0.21 µM | 5.7 nM | –
CC1(C)CN(c2ccccc2NC(=O)Nc2nc3ccc(F)cc3s2)c2c(O)ccc(-c3nc4cc(F)ccc4s3)c21 [Example 171, 1-(6-Fluorobenzo[d]thiazol-2-yl)-3-(2-(4-(5-fluorobenzo[d]thiazol-2-yl)-7-hydroxy-3,3-dimethylindolin-1-yl)phenyl)urea] | 0.36 µM | 8.7 nM | –
CC(C)c1nc(-c2ccc(O)c3c2C(C)(C)CN3c2ccccc2NC(=O)Nc2ccc(OC(F)(F)F)cc2)cs1 [Example 127, 1-(2-(7-Hydroxy-4-(2-isopropylthiazol-4-yl)-3,3-dimethylindolin-1-yl)phenyl)-3-(4-(trifluoromethoxy)phenyl)urea] | 0.28 µM | 4.7 nM | –
CC1(C)CN(c2ccccc2NC(=O)Nc2nc3ccc(Cl)nc3s2)c2c(O)ccc(-c3nc4ccc(F)cc4s3)c21 [Example 176, 1-(5-Chlorothiazolo[5,4-b]pyridin-2-yl)-3-(2-(4-(6-fluorobenzo[d]thiazol-2-yl)-7-hydroxy-3,3-dimethylindolin-1-yl)phenyl)urea] | 0.35 µM | 13 nM | –
CC1(C)CN(c2ccccc2NC(=O)Nc2csc(C(F)(F)F)n2)c2c(O)cc(F)c(-c3ccc(C(F)(F)F)cc3)c21 [Example 217, 1-(2-(5-Fluoro-7-hydroxy-3,3-dimethyl-4-(4-(trifluoromethyl)phenyl)indolin-1-yl)phenyl)-3-(2-(trifluoromethyl)thiazol-4-yl)urea] | 0.16 µM | 8 nM | –
CC1(C)CN(c2ccccc2NC(=O)Nc2nc3ccc(F)cc3s2)c2c(O)ccc(-c3nc4ccc(F)cc4s3)c21 [Example 175, 1-(6-Fluorobenzo[d]thiazol-2-yl)-3-(2-(4-(6-fluorobenzo[d]thiazol-2-yl)-7-hydroxy-3,3-dimethylindolin-1-yl)phenyl)urea] | 0.35 µM | 17.6 nM | –
CCC1(CC)CN(c2ccccc2NC(=O)Nc2nc3ccc(F)cc3s2)c2c(O)ccc(Cl)c21 [Example 49, 1-(2-(4-Chloro-3,3-diethyl-7-hydroxyindolin-1-yl)phenyl)-3-(6-fluorobenzo[d]thiazol-2-yl)urea] | 0.18 µM | 6.6 nM | –
CCC1(CC)CN(c2ccccc2NC(=O)Nc2nc(C(C)C)ns2)c2c(O)ccc(Cl)c21 [Example 48, 1-(2-(4-Chloro-3,3-diethyl-7-hydroxyindolin-1-yl)phenyl)-3-(3-isopropyl-1,2,4-thiadiazol-5-yl)urea] | 0.48 µM | 7 nM | –
CC1(C)CN(c2ccccc2NC(=O)Nc2csc(C(F)(F)F)n2)c2c(O)cc(F)c(-c3ccc(Cl)cc3)c21 [Example 218, 1-(2-(4-(4-Chlorophenyl)-5-fluoro-7-hydroxy-3,3-dimethylindolin-1-yl)phenyl)-3-(2-(trifluoromethyl)thiazol-4-yl)urea] | 0.37 µM | 9.3 nM | –
CC1(C)CN(c2ccccc2NC(=O)Nc2ccc(OC(F)(F)F)cc2)c2c(O)ccc(-c3nccs3)c21 [Example 124, 1-(2-(7-Hydroxy-3,3-dimethyl-4-(thiazol-2-yl)indolin-1-yl)phenyl)-3-(4-(trifluoromethoxy)phenyl)urea] | 0.82 µM | 3.4 nM | –
CC1(C)CN(c2ccccc2NC(=O)Nc2ccc(OC(F)(F)F)cc2)c2c(O)cc(F)c(-c3ccc(F)c(Cl)c3)c21 [Example 237, 1-(2-(4-(3-Chloro-4-fluorophenyl)-5-fluoro-7-hydroxy-3,3-dimethylindolin-1-yl)phenyl)-3-(4-(trifluoromethoxy)phenyl)urea] | 0.48 µM | – | 21.5 nM
CC1(C)CN(c2ccccc2NC(=O)Nc2nc3ccc(F)cc3s2)c2c(O)cc(F)c(-c3ccc(Cl)cc3)c21 [Example 224, 1-(2-(4-(4-Chlorophenyl)-5-fluoro-7-hydroxy-3,3-dimethylindolin-1-yl)phenyl)-3-(6-fluorobenzo[d]thiazol-2-yl)urea] | 0.34 µM | – | 26.1 nM
CCC1(CC)CN(c2ccccc2NC(=O)Nc2ccc(C3CCN(CC(C)(C)C)CC3)cc2)c2c1ccc(F)c2O [Example 37, 1-(2-(3,3-Diethyl-6-fluoro-7-hydroxyindolin-1-yl)phenyl)-3-(4-(1-neopentylpiperidin-4-yl)phenyl)urea] | 0.89 µM | – | 8.7 nM
CCC1(CC)CN(c2ccccc2NC(=O)Nc2ccc(C(F)(F)F)cc2)c2c(O)ccc(Cl)c21 [Example 52, 1-(2-(4-Chloro-3,3-diethyl-7-hydroxyindolin-1-yl)phenyl)-3-(4-(trifluoromethyl)phenyl) urea] | 0.28 µM | – | 12.6 nM
CC1(C)CN(c2ccccc2NC(=O)Nc2nc3ccc(F)nc3s2)c2c(O)cc(F)c(-c3ccc(Cl)cc3)c21 [Example 227, 1-(2-(4-(4-Chlorophenyl)-5-fluoro-7-hydroxy-3,3-dimethylindolin-1-yl)phenyl)-3-(5-fluorothiazolo[5,4-b]pyridin-2-yl)urea] | 0.56 µM | – | 21.6 nM
CC1(C)CN(c2ccccc2NC(=O)Nc2nc3ccc(Cl)cc3s2)c2c(O)ccc(C(F)(F)F)c21 [Example 19, 1-(6-Chlorobenzo[d]thiazol-2-yl)-3-(2-(7-hydroxy-3,3-dimethyl-4-(trifluoromethyl)indolin-1-yl)phenyl)urea] | 0.12 µM | – | 23.6 nM
CC1(C)CN(c2ccccc2NC(=O)Nc2ccc(OC(F)(F)F)cc2)c2c(O)ccc(-c3nc4ccc(F)cc4s3)c21 [Example 174, 1-(2-(4-(6-Fluorobenzo[d]thiazol-2-yl)-7-hydroxy-3,3-dimethylindolin-1-yl)phenyl)-3-(4-(trifluoromethoxy)phenyl)urea] | 0.32 µM | 6.3 nM | –
CC(C)(C)c1ccccc1Oc1ncccc1NC(=O)Nc1ccccc1N1CC(C)(C)c2ccccc21 [Comparator 3, reference compound] | > 20 µM | – | 759 nM
CCC1(CC)CN(c2ccccc2NC(=O)Nc2csc(Cl)n2)c2c(O)ccc(F)c21 [Example 31, 1-(2-Chlorothiazol-4-yl)-3-(2-(3,3-diethyl-4-fluoro-7-hydroxyindolin-1-yl)phenyl)urea] | 0.53 µM | – | 3.3 nM
CC1(C)CN(c2ccccc2NC(=O)Nc2ccc(OC(F)(F)F)cc2)c2c(O)cc(F)c(-c3ccc(F)cc3)c21 [Example 194, 1-(2-(5-Fluoro-4-(4-fluorophenyl)-7-hydroxy-3,3-dimethylindolin-1-yl)phenyl)-3-(4-(trifluoromethoxy)phenyl)urea] | 0.26 µM | – | 6.7 nM
